Reference: PubChem BioAssay (NCI)
“And” between values parts separate entries of the source, which are not always exact repeats. Equal entries are not always repeated.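 Step 1: Grow cells in 96-well plates. Step 2: Expose to compound for 48 hours at 5 concentrations. Step 3: Interpolate endpoints linearly; if unreached, use highest concentration. GI50 is the concentration that inhibits growth by half. TGI marks complete inhibition of growth.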

How the values were obtained:
Test in all cases: inhibition of tumour cell growth, NCI panel, 48 h
[1] = system: PC-3 prostate
[2] = system: UACC-257 melanoma
[3] = system: SW-620 colon
[4] = system: NCI-H23 lung
[5] = system: MCF7 breast
[6] = system: RXF 393 renal
[7] = system: ACHN renal
[8] = system: SK-MEL-2 melanoma
[9] = system: TK-10 renal
[10] = system: IGROV1 ovarian

SMILES | TGI [1] | TGI [2] | TGI [3] | TGI [4] | TGI [5] | TGI [6] | TGI [7] | TGI [8] | TGI [9] | TGI [10] | GI50 [1] | GI50 [2] | GI50 [3] | GI50 [4] | GI50 [5] | GI50 [8] | GI50 [9]
NCCN1C(=O)c2ccccc2C1c1ccc(Cl)cc1 (configuration not stated) | > 100 µM | > 100 µM | > 100 µM | > 100 µM | > 100 µM | > 100 µM | > 100 µM | > 100 µM | > 100 µM | > 100 µM | – | – | – | – | – | – | –
CCCCOC(=O)C1CC[C@H]2[C@@H]3CCc4cc(OC(=O)c5cccc6c(=O)c7ccccc7[nH]c56)ccc4[C@H]3CC[C@]12C (some centres not stated) | 15.6 µM | 15.3 µM | 30.5 µM | 16.6 µM | 25.8 µM | 17 µM | 15.6 µM | 18.5 µM | 14.7 µM | 14.9 µM | – | – | – | – | – | – | –
c1ccc2c(c1)cc1n2CCc2c-1[nH]c1ccccc21 | > 10 µM | > 10 µM | > 10 µM | > 10 µM | > 10 µM | > 10 µM | > 10 µM | > 10 µM | > 10 µM | > 10 µM | – | – | – | – | – | – | –
COc1cc(OC)c2c(c1)OC(c1cccnc1)C(c1ccccc1)C2=O (configuration not stated) | > 100 µM | > 100 µM | > 100 µM | > 100 µM | > 100 µM | > 100 µM | > 100 µM | > 100 µM | > 100 µM | > 100 µM | – | – | – | – | – | – | –
CC(=O)OCC1OC(n2c(S)c(C#N)c(-c3ccccc3)c(C#N)c2=O)C(OC(C)=O)C(OC(C)=O)C1OC(C)=O (configuration not stated) | > 100 µM | > 100 µM and 81.4 µM | > 100 µM | > 100 µM | > 100 µM and 97.6 µM | 59.4 µM and 59.1 µM | > 100 µM | > 100 µM and 31.8 µM | > 100 µM and 86.5 µM | > 100 µM | > 100 µM and 43.5 µM | > 100 µM and 36.2 µM | > 100 µM and 49.9 µM | > 100 µM and 45 µM | > 100 µM and 33.7 µM | > 61.6 µM and 13.6 µM | 90.7 µM and 24.9 µM
O=c1[nH]c(NCc2ccc(Cl)cc2)nc2nc[nH]c12 | > 100 µM | > 100 µM | > 100 µM | > 100 µM | > 100 µM | > 100 µM | > 100 µM | > 100 µM | > 100 µM | > 100 µM | – | – | – | – | – | – | –
COc1ccccc1C(=O)NCC1CCCN2CCCCC12 (configuration not stated) | > 100 µM | > 100 µM | > 100 µM | > 100 µM | > 100 µM | > 100 µM | > 100 µM | > 100 µM | > 100 µM | > 100 µM | – | – | – | – | – | – | –
COC(=O)C1OC(O[C@H]2CC[C@]3(C)[C@H]4CC=C5[C@@H]6CC(C)(C)CC[C@]6(C(=O)OC6OCC(O)C(O)C6OC6OC(C)C(OC7OCC(O)C(O)C7O)C(OC7OCC(O)(CO)C7O)C6O)[C@H](O)C[C@@]5(C)[C@]4(C)CC[C@H]3C2(C)C)C(O)C(O)C1O (some centres not stated) | 14.5 µM | 11.5 µM | 19.2 µM | 3.56 µM | 3.43 µM | 24.6 µM | 10.1 µM | 5.82 µM | 29.4 µM | 27.1 µM | – | – | – | – | – | – | –
COC1C(N(C)C)=C(c2ccccc2)C(=O)N2CCc3ccccc3C12 (configuration not stated) | > 100 µM | > 100 µM | > 100 µM | > 100 µM | > 100 µM | > 100 µM | > 100 µM | > 100 µM | > 100 µM | > 100 µM | – | – | – | – | – | – | –
O=C1C(c2c(O)[nH]c3ccc(Br)cc23)=Nc2ccc(Br)cc21 | > 100 µM | > 100 µM | > 100 µM | 88 µM | 43.1 µM | 40.7 µM | > 100 µM | > 100 µM | > 100 µM | > 100 µM | – | – | – | – | – | – | –
Nc1nc(Cl)c(Cl)c(NCC2(O)CCC2)n1 | > 100 µM | > 100 µM | > 100 µM | > 100 µM | > 100 µM | > 100 µM | > 100 µM | > 100 µM | > 100 µM | > 100 µM | – | – | – | – | – | – | –
[N-]=[N+]=CC(=O)OCCCCl | > 100 µM | > 100 µM | > 100 µM | > 100 µM | > 100 µM | > 100 µM | > 100 µM | > 100 µM | > 100 µM | > 100 µM | – | – | – | – | – | – | –
COc1cc2c(cc1OC)C(=O)/C(=C/c1cc(C)cc(C)c1)C2 | 24.2 µM | > 100 µM | > 90.7 µM | > 68 µM | > 31.9 µM | 0.604 µM | > 100 µM | 44.4 µM | > 100 µM | > 42.4 µM | – | – | – | – | – | – | –
Cn1c(=O)c2c(nc3sc4ccccc4c(=O)n32)n(C)c1=O | > 100 µM | > 100 µM | > 100 µM | > 100 µM | > 100 µM | > 100 µM | > 100 µM | > 100 µM | > 100 µM | > 100 µM | – | – | – | – | – | – | –
COc1ccc(C2C(=O)c3c(OC)cc(OC)cc3OC2c2cccnc2)cc1 (configuration not stated) | > 100 µM | > 100 µM | > 100 µM | > 100 µM | > 100 µM | > 100 µM | > 100 µM | > 100 µM | > 100 µM | > 100 µM | – | – | – | – | – | – | –
CCC(C)C1=C(O)[N+]2([O-])Oc3ccc(-c4c(O)c(O)c(-c5ccc(OC(C)=O)cc5)c(OC(C)=O)c4OC(C)=O)cc3OC2(C(C)CC)C(=O)N1O (configuration not stated) | > 50 µM | > 50 µM | > 50 µM | > 50 µM | > 50 µM | > 50 µM | > 50 µM | > 50 µM | > 50 µM | > 50 µM | – | – | – | – | – | – | –
